This note sets out measurements from patent US9504702B2, “Methods of inhibition of protein fucosylation in vivo using fucose analogs” (Seattle Genetics, Inc., priority 2010, dated 2016).

Test [1] has as its system antibody core fucosylation (CHO DG44 cell line producing humanized IgG1 anti-CD70 antibody h1F6). The test is described as follows: Inhibition of antibody core fucosylation in CHO DG44 cell culture producing h1F6. Type of test: cell-based. The settings on record: day 5, CHO DG44 h1F6; for Inhibition at 50 μM: 50 μM fucose analog, read-out: Inhibition at 50 μM; for inhibition at 1000 µM: 1 mM fucose analog. The essentials:
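CHO DG44 cells producing h1F6 were seeded at 7.5×10^5 cells/mL in medium with IGF, penicillin and streptomycin plus fucose analog at 50 μM or 1 mM, grown at 37 °C, 5% CO2 with shaking. On day 5 the antibody was purified from supernatant by protein A and eluted, then neutralized with Tris pH 8.0.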

Test [2] concerns circulating white blood cells and neutrophils; lymph nodes. Put plainly: Leukocytosis and lymph node cellularity following oral dosing. The test is classed as in vivo, Female Balb/c mice. The procedure:
The effects of a fucose analog on leukocytosis and E-selectin binding were eamined in mice. Female Balb/c mice were given oral 2-fluorofucose (SGD-2083) in the drinking water or left untreated. Mice were bled prior to dosing and then weekly for three weeks to assess circulating cell numbers and their ability to bind E-selectin. In one study, 2-fluorofucose was formulated at 1 mM, 10 mM or 100 mM in the drinking water (n=3 per group). At day 14, mice were treated with TiterMAX® Classic adjuvant (Sigma) to stimulate polyclonal, antigen non-specific antibody production by B cells, and remained on the 2-fluorofucose-containing water through day 21. In a second study, mice were given oral 2-fluorofucose formulated at 10 mM and 100 mM in the drinking water for three weeks without any other treatments (n=6). On day 21, a pool of lymph nodes (axillary, brachial, superficial inguinal, and mesenteric) from each of three animals was assessed in addition to blood. Lymph nodes were homogenized into single cell suspensions, and total cell numbers were determined by counting on a hemcytometer, using Trypan Blue for dead cell exclusion. To determine total white cell numbers/μL blood, samples of blood from individual animals were counted on a hemacytometer, using Turk's solution (0.01% gentian violet in 3% acetic acid) to exclude red blood cells (RBCs). RBCs were eliminated from the remainder of the blood by osmotic lysis for flow cytometric analysis. Cells were incubated with anti-Gr-1-FITC antibodies (BD Biosciences) to identify neutrophils, and a recombinant E-selectin-human Fc fusion protein (R&D Systems). Cells were washed and then incubated with a PE-labeled goat anti-human IgG-Fc secondary antibody (Jackson Immunoresearch) to detect bound E-selectin. Samples were collected on a FACSCalibur flow cytometer and analyzed using CellQuest software. The percentage of Gr-1+ cells was determined and absolute number of neutrophils was calculated using the total white cell number from the hemacytometer count. In addition, flow samples were gated for Gr-1+ cells to assess E-selectin binding to neutrophils by histogram analysis. The geometric mean of the E-selectin fluorescent signal was determined from the histogram.

Test [3] relates to LS174T, PC-3, HL-60, Ramos, and Caki-1 cell lines. Put plainly: Cell surface fucosylation of human-derived cell lines cultured with fucose analog, FACS (Example 7, Study 1). Type of test: cell-based. The conditions noted are these: 100 μM, two weeks. The procedure:
Human-derived cell lines were evaluated for their susceptibility to the fucose analog 2-fluorofucose in vitro. The cells lines were: LS174T colon adenocarcinoma, […], HL-60 acute mylogenous leukemia, Ramos Burkitt lymphoma, and Caki-1 renal cell carcinoma. The cell lines were cultured in the presence of 100 μM 2-fluorofucose (SGD-2083) in growth media, 100 μM alkynylfucose (SGD-1887) in growth media, or control growth media (without a fucose analog) for two weeks. The growth media were MEM Eagle with 10% FBS (LS174T), 50:50 F12 and RPMI with 10% FBS (PC-3), RPMI with 10% FBS (HL-60), IMDM with 10% FBS (Ramos), and McCoy with 10% FBS ([…]). The cells were evaluated for cell surface fucosylation by FACS using antibody cBR96 to detect LewisY, antibody SSEA-1 to detect LewisX, P-selectin ligand to detect P-selectin, and AOL lectin to detect the general level of fucosylation.

A further test concerns PC-3. Put plainly: Xenograft of pre-treated PC-3 cells (Example 7, Study 2). Type of test: in vivo, female nude mice. The conditions noted are these: 20 mM in drinking water. The procedure:
(§1) To further evaluate the activity of these fucose analogs, further studies were performed in vivo using tumor cells that had been pre-treated by culturing in the presence of a fucose analog, or using untreated tumor cells. Tumor cells were implanted into 10 mice per group as follows. For the LS174T, PC-3, and Caki-1 cell lines, 5×10^5 cells in 25% Matrigel were implanted subcutaneously into female nude mice. For HL-60 and Ramos cell lines, 5×10^6 cells were implanted subcutaneously into female SCID mice. For mice implanted with untreated tumor cells, mice were provided regular drinking water. For mice implanted with tumor cells pre-treated with 2-fluorofucose (SGD-2083), the mice were provided drinking water supplemented with 20 mM 2-fluorofucose (SGD-2083). For mice implanted with tumor cells pre-treated with alkylnyl fucose (SGD-1887), the mice were provided with regular drinking water.
(§2) After 3 weeks of receiving 2-fluorofucose-containing drinking water, mice were returned to regular drinking water, except for mice with Caki-1 tumors. The latter mice were returned to regular drinking water for one week. After the week of receiving regular water, mice were randomized to two groups of 5 each to receive drinking water supplemented with 20 mM 2-fluorofucose or regular drinking water. Mice were sacrificed when tumors reached about 1000 mm^3.

Test [4] concerns HL-60 acute mylogenous leukemia. The test is described as follows: Xenograft of pre-treated HL-60 cells (Example 7, Study 2). The conditions noted are these: 20 mM in drinking water. Type of test: in vivo, female SCID mice. As to the method:
as §1, §2

For the next test, the system named is Ramos Burkitt lymphoma. The test is described as follows: Xenograft of pre-treated Ramos cells (Example 7, Study 2). The test is classed as in vivo, female SCID mice. The conditions noted are these: 20 mM in drinking water. As to the method: as §1, §2

Each structure is given as a SMILES string. Like-named read-outs stand apart in the source and are kept apart here. Bounds are passed on as bounds.

With `C#CC(OC(C)=O)[C@@H](OC(C)=O)[C@@H](OC(C)=O)[C@@H](C=O)OC(C)=O` (stereo partly drawn) [SGD-1890, 5-ethynylarabinose tetraacetate], in test [1] (120 h), the Inhibition (commonly how much of the control response was suppressed) at 50 μM was over 80% and the inhibition (usually the share of the control response that was lost under treatment) at 1000 µM was over 80%.

As to `C[C@H](O)[C@@H](O)[C@@H](O)[C@H](F)C=O` [SGD-2083, 2-fluoro-2-deoxy fucose], in test [1] (CHO-DG44, 120 h), the Inhibition at 50 μM was over 80%. Also, the inhibition at 1000 µM in test [1] (CHO-DG44, 120 h) is over 80%. Further, the “effect on circulating white blood cells and neutrophils” value in test [2] (1 mM in drinking water) is “very little effect”; in test [2] (10 mM and 100 mM in drinking water), “increasing effect”. Further, the “cellularity in the lymph nodes” value in test [2] (day 21, second study, 10 mM and 100 mM in drinking water, more severe at 100 mM) is given as “marked decreased”. The “circulating white blood cells and neutrophils” value in test [2] (oral in drinking water, dose-dependent) is “increase”. Besides, in test [3], the “inhibition of protein fucosylation, compared with alkynyl fucose (SGD-1887)” value is “generally a better inhibitor”. For the same compound, the tumor growth result is listed as “tumor growth inhibition in vivo was seen” in the test on PC-3, “No change in tumor growth” in test [4] and “No change in tumor growth” in the test on Ramos Burkitt lymphoma.
